From the supplement of paper PMC10331698
± gives the standard deviation of the averaged measurements.

Legend:
Test in all cases: level (log10 ratio to DMSO vehicle control); higher = higher biomarker level / cell amount than vehicle control
Octafluoroadipamide = compound: NC(=O)C(F)(F)C(F)(F)C(F)(F)C(F)(F)C(N)=O [Octafluoroadipamide]; settings: in DMSO
Experimental: (§1)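 BioMAP Diversity Plus panel of 12 human primary cell co-culture systems (3C, 4H, LPS, SAg, BT, BF4T, BE3C, CASM3C, HDF3CGF, KF3CT, MyoF, Mphg). Compounds were added 1 h before stimulation and left for 24 h (MyoF 48 h; BT 72 h for soluble read-outs or 6 d for IgG). Biomarkers were read by ELISA, cytotoxicity by SRB, PBMC viability and proliferation by Alamar Blue. Each well value was divided by the mean of 8 DMSO control wells on the same plate and log10 transformed; duplicate blinded samples were tested at 4 concentrations.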

Hexafluoroamylene glycol = compound: OCC(F)(F)C(F)(F)C(F)(F)CO [Hexafluoroamylene glycol]; settings: in DMSO
Experimental: as §1

[1] = compound: C=CC(=O)OCC(F)(F)C(F)(F)C(F)(F)COC(=O)C=C [1H,1H,5H,5H-Perfluoro-1,5-pentanediol diacrylate]; settings: 6700 nM; in DMSO
Experimental: as §1

[2] = compound: O=C(O)C=CC(F)(C(F)(F)F)C(F)(F)F [3-(Perfluoroisopropyl)-2-propenoic acid]; settings: in DMSO
Experimental: as §1

[3] = compound: FC(F)(F)C(F)(F)C(F)(F)C(F)(F)C(F)(F)C(F)(F)CC1CO1 [3-(Perfluorohexyl)-1,2-epoxypropane]; settings: in DMSO
Experimental: as §1

[4] = compound: O=S(=O)(O)CCC(F)(F)C(F)(F)C(F)(F)C(F)(F)C(F)(F)C(F)(F)F [6:2 Fluorotelomer sulfonic acid]; settings: in DMSO
Experimental: as §1

Nonafluoropentanamide = compound: NC(=O)C(F)(F)C(F)(F)C(F)(F)C(F)(F)F [Nonafluoropentanamide]; settings: in DMSO
Experimental: as §1

Row | Test System | level (log10) (Octafluoroadipamide; 6700 nM) | level (log10) (Octafluoroadipamide; 20000 nM) | level (log10) (Octafluoroadipamide; 60000 nM) | level (log10) (Hexafluoroamylene glycol; 6700 nM) | level (log10) (Hexafluoroamylene glycol; 20000 nM) | level (log10) (Hexafluoroamylene glycol; 60000 nM) | level (log10) [1] | level (log10) ([2]; 6700 nM) | level (log10) ([2]; 20000 nM) | level (log10) ([2]; 60000 nM) | level (log10) ([3]; 6700 nM) | level (log10) ([3]; 20000 nM) | level (log10) ([3]; 60000 nM) | level (log10) ([4]; 6700 nM) | level (log10) ([4]; 20000 nM) | level (log10) ([4]; 60000 nM) | level (log10) (Nonafluoropentanamide; 6700 nM) | level (log10) (Nonafluoropentanamide; 20000 nM) | level (log10) (Nonafluoropentanamide; 60000 nM)
1 | MyoF:MMP-1 | 0.0115 ± 0.036 | -0.0085 ± 0.0078 | 0.0325 ± 0.079 | -0.0245 ± 0.011 | -0.0525 ± 0.019 | -0.0115 ± 0.0092 | 0.206 ± 0.0028 | -0.0205 ± 0.021 | -0.031 ± 0.0014 | 0.006 ± 0.068 | -0.019 ± 0.0085 | -0.02 ± 0.017 | 0.017 ± 0.055 | -0.018 ± 0.021 | -0.058 ± 0.0042 | -0.0145 ± 0.047 | -0.035 ± 0.037 | -0.02 ± 0.052 | -0.0055 ± 0.015
2 | MyoF:PAI-I | -0.008 ± 0.027 | 0.0045 ± 0.0035 | 0.009 ± 0.0042 | -0.0045 ± 0.0064 | -0.0105 ± 0.00071 | 0.01 ± 0.011 | -0.0055 ± 0.03 | 0.0125 ± 0.0078 | 0.007 ± 0.0099 | 0.009 ± 0.0014 | 0.011 ± 0.0099 | -0.0035 ± 0.00071 | 0.0055 ± 0.0021 | -0.0035 ± 0.0021 | -0.011 ± 0.0014 | -0.0035 ± 0.015 | 0.006 ± 0.011 | 0.012 ± 0.0057 | 0.021 ± 0.0014
3 | MyoF:alpha-SM Actin | 0.022 ± 0.061 | 0.0315 ± 0.056 | 0.0385 ± 0.032 | 0.024 ± 0.0085 | 0.0155 ± 0.013 | 0.025 ± 0.02 | -0.208 ± 0.024 | 0.0065 ± 0.021 | 0 ± 0.054 | 0.0245 ± 0.011 | 0.0205 ± 0.015 | 0.0035 ± 0.0064 | 0.0185 ± 0.0035 | 0.016 ± 0.018 | 0.001 ± 0.021 | -0.02 ± 0.082 | -0.023 ± 0.027 | 0.0035 ± 0.04 | -0.0055 ± 0.063
4 | MyoF:bFGF | -0.0115 ± 0.015 | -0.014 ± 0.011 | 0.0135 ± 0.0078 | -0.007 ± 0.017 | 0.006 ± 0.0085 | 0.0125 ± 0.019 | 0.0025 ± 0.005 | 0 ± 0.0028 | 0.006 ± 0.027 | 0.006 ± 0.017 | 0.02 ± 0.02 | 0.02 ± 0.018 | 0.014 ± 0.0057 | -0.0065 ± 0.0078 | 0.019 ± 0.013 | 0.0235 ± 0.044 | 0.0185 ± 0.023 | -0.003 ± 0.0099 | -0.007 ± 0.0057
5 | lMphg:CCL2/MCP-1 | 0.0185 ± 0.016 | 0.0035 ± 0.0021 | 0.005 ± 0.025 | -0.001 ± 0.03 | -0.0115 ± 0.0064 | -0.007 ± 0.023 | -0.048 ± 0.0085 | -0.023 ± 0.014 | -0.0275 ± 0.011 | 0.006 ± 0.03 | -0.009 ± 0.031 | -0.0255 ± 0.026 | 0.0025 ± 0.044 | -0.0195 ± 0.012 | -0.005 ± 0.0099 | 0.027 ± 0.025 | 0.0005 ± 0.0021 | 0.0025 ± 0.049 | 0.0225 ± 0.037
6 | lMphg:CCL3/MIP-1alpha | 0.0425 ± 0.032 | 0.019 ± 0.047 | 0.0295 ± 0.013 | 0.03 ± 0.072 | -0.0125 ± 0.023 | 0.023 ± 0.034 | -0.008 ± 0.0057 | -0.031 ± 0.018 | -0.0285 ± 0.016 | -0.0125 ± 0.016 | -0.0345 ± 0.035 | -0.029 ± 0.034 | -0.009 ± 0.021 | 0.014 ± 0.021 | 0.072 ± 0.02 | 0.0565 ± 0.039 | 0.0025 ± 0.057 | -0.0015 ± 0.06 | 0 ± 0.045
7 | lMphg:CD62E/E-Selectin | 0.0095 ± 0.00071 | 0.002 ± 0.0042 | 0.007 ± 0.016 | 0.002 ± 0.0057 | -0.0215 ± 0.0092 | 0.0055 ± 0.025 | -0.0595 ± 0.00071 | -0.0045 ± 0.012 | -0.002 ± 0.0099 | 0.0205 ± 0.0035 | -0.0155 ± 0.00071 | 0.0055 ± 0.016 | -0.0045 ± 0.061 | -0.0225 ± 0.018 | -0.039 ± 0.0071 | 0 ± 0.023 | -0.0115 ± 0.021 | -0.009 ± 0.03 | -0.011 ± 0.0028
8 | lMphg:CD106/VCAM-1 | 0.014 ± 0.013 | 0.019 ± 0.0085 | 0.0125 ± 0.0021 | -0.0185 ± 0.012 | -0.014 ± 0.0057 | -0.0175 ± 0.0092 | -0.0615 ± 0.025 | 0.001 ± 0.024 | 0.0125 ± 0.005 | 0.002 ± 0.034 | 0.0025 ± 0.012 | 0.005 ± 0.013 | -0.0015 ± 0.018 | -0.007 ± 0.011 | -0.0125 ± 0.0092 | -0.022 ± 0.0071 | -0.0255 ± 0.033 | 0.0065 ± 0.028 | -0.012 ± 0.028
9 | lMphg:IL-1alpha | -0.0135 ± 0.016 | -0.044 ± 0.016 | -0.014 ± 0.065 | 0.005 ± 0.02 | 0.015 ± 0.027 | 0.029 ± 0.061 | 0.045 ± 0.024 | -0.0055 ± 0.037 | 0.0095 ± 0.016 | -0.0025 ± 0.012 | -0.0115 ± 0.046 | -0.013 ± 0.021 | -0.0015 ± 0.011 | 0.0395 ± 0.05 | 0.0235 ± 0.035 | 0.0215 ± 0.039 | 0.0035 ± 0.047 | -0.0325 ± 0.047 | -0.017 ± 0.048
10 | lMphg:M-CSF | -0.017 ± 0.0028 | -0.0065 ± 0.0035 | 0.0045 ± 0.00071 | -0.008 ± 0.0057 | -0.009 ± 0.0071 | 0.006 ± 0.0014 | -0.0245 ± 0.0035 | -0.0105 ± 0.0064 | -0.021 ± 0.014 | -0.015 ± 0.025 | -0.01 ± 0.0071 | -0.0305 ± 0.0078 | -0.0145 ± 0.021 | 0.0045 ± 0.0078 | -0.023 ± 0.028 | -0.0145 ± 0.0064 | 0.004 ± 0.0071 | 0.004 ± 0.017 | 0.018 ± 0.0014
11 | lMphg:SRB | -0.004 ± 0.0014 | 0 ± 0.0042 | 0.008 ± 0.017 | 0.0055 ± 0.015 | 0.007 ± 0.02 | -0.002 | 0.001 ± 0.0014 | -0.017 ± 0.0085 | -0.012 ± 0.0099 | -0.0085 ± 0.012 | -0.012 ± 0.0042 | -0.016 ± 0.0071 | 0.0115 ± 0.005 | -0.001 ± 0.011 | 0.0125 ± 0.019 | -0.002 ± 0.018 | 0.003 ± 0.014 | 0.003 ± 0.0071 | -0.006 ± 0.0042
12 | lMphg:sIL-10 | -0.0295 ± 0.021 | -0.012 ± 0.11 | -0.1 ± 0.017 | -0.0035 ± 0.0092 | -0.0155 ± 0.016 | -0.0135 ± 0.0021 | -0.13 ± 0.035 | -0.055 ± 0.064 | -0.048 ± 0.017 | -0.082 ± 0.0071 | -0.0195 ± 0.029 | -0.057 ± 0.0085 | -0.059 ± 0.051 | -0.025 ± 0.037 | -0.015 ± 0.02 | -0.049 ± 0.0057 | -0.0615 ± 0.044 | -0.0475 ± 0.00071 | 0.0505 ± 0.073
